Laboratory results: patent publication US12473333B2, “Method for increasing ETEC CS6 antigen presentation on cell surface and products obtainable thereof” (Scandinavian Biopharma Holding AB, priority 2011, dated 2025)
Where two headings read alike, the source gives them in different places.

Tested on: CS6 expressing bacteria
Protocol: These inactivated bacteria were then used for oral immunizations of mice.
The suspensions were incubated for 2 h at 37° C. with shaking at 60 rpm, and then kept at 4° C. for 3 days without agitation. The bacterial suspensions were then centrifuged, washed, and re-suspended in the same volume of PBS and kept at 4° C. until use. In both inactivation methods, 0.1 ml of each suspension was spread onto blood agar and incubated at 37° C. for up to one week to check for lack of growth. Before being used for oral immunization, the level of CS6 on the inactivated bacteria was checked by inhibition ELISA.

Oc1ccccc1 [phenol]
killing of the bacteria (0.25% phenol): did not result in complete killing of the bacteria | killing of the bacteria (0.5% phenol, data not shown): killed the tested bacteria
